Laboratory results taken from patent US20250082649A1, “ALTERATION OF NUTRIENT PREFERENCES VIA MODULATION OF NUTRIENT RECEPTORS IN THE GUT” (The Trustees of Columbia University in the City of New York, priority 2022, published 2025).
“Also recorded” adds a separate entry of the source.

What was measured:
[1] = tested on: mice; assay: Brief-access (30 min) two-bottle tests, immediate attraction; format: in vivo; settings: 30 min two-bottle test, 3 mM AceK or 1.5% Intralipid, n=9 mice
Method: Two-bottle preference assays. No behavioral experiments, including the short-term assays for taste responses, or the 48 h tests examining the development of sugar or fat preference used water-restricted or food-deprived mice. Mice were given ad libitum access to food and water for several days prior to the behavioral tests; any food or water restriction would severely affect the mice's behavior in preference or taste responses. Development of fat preference: mice were first tested for their initial preference between 1.5% Intralipid and 3 mM AceK (pre testing) by completing 100 drinking trials. Each trial was initiated by the first lick and lasted for 5 s; the drinking ports then re-opened after 30 s of inter-trial interval. Next, mice were exposed to 500 licks to both 1.5% Intralipid and 3 mM AceK; this was repeated twice. […] The pre and post-preference indexes were calculated by dividing the number of licks to fat by the total lick count during the first 2-4 h (100 trials) of baseline measurements (pre) and during the last 2-4 h (100 trials) of the behavioural session (post), respectively. […] The ‘pre’ preference index was calculated as the number of licks to fat divided by the total lick count during the first 4 h; the “post” preference index was calculated as the number of licks to fat divided by the total lick count during the last 4 h of the session. […]

[2] = tested on: vagal sensory neurons; assay: Vagal calcium imaging (nodose ganglion, GCaMP6s) with intestinal delivery of stimuli; format: in vivo, mice; settings: for responding vagal neurons of imaged neurons: intestinal delivery, 10% fatty acid or pre-digested Intralipid, FIG. 10E-10I stimuli interleaved with 10% LA (10 s)
Method: To directly examine and monitor the fat responses of vagal sensory neurons, functional imaging of the nodose ganglion (which contains the cell bodies of vagal neurons) was performed. The genetically encoded activity sensor GCaMP6s was targeted to vagal sensory neurons using Vglut2-Cre animals, and a one-photon calcium imaging set-up was used coupled to synchronous intestinal delivery of fat, sugar and other stimuli to record neuronal responses in vivo, with real time kinetics (FIG. 2E, FIG. 10A, FIG. 10B, FIG. 10C). To administer the stimuli, a catheter was placed into the duodenal bulb, and an exit port was created by transecting the intestine 10 cm distally. During each imaging session, the intestine was exposed to a pre-stimulus application of PBS, a 10 s or 60 s exposure to the test stimulus, and a 200 s post-stimulus wash; this regime was repeated at least 3 times for each stimulus.
Fat, sugar and amino acid intestinal stimulation. Stimuli for nodose imaging experiments were as follows. Sugar: 500 mM glucose. Amino acids: a mix consisting of 50 mM methionine, 50 mM serine, 50 mM alanine, 50 mM glutamine and 50 mM cysteine dissolved in PBS. Fat: 10% linoleic acid, 10% linolenic acid, 10% hexanoic acid, 10% DHA, 10% oleic acid, diluted in PBS containing 0.1% xanthan gum and 0.05% Tween 80, and vortexed for a minimum of 10 min. Vehicle control: 0.1% xanthan gum and 0.05% Tween 80. For sugar and fat intestinal stimulation in imaging experiments, a 10 s window of stimulation was used; for amino acids, a 60 s stimulus was used, as lower concentrations of each in the mix of several amino acids was used (see above). Note that if using Intralipid mix (a 20% soy bean oil emulsion, Santa Cruz) for nodose imaging experiments (rather than consumption where it would be naturally digested and broken down into short, medium and long chain fatty acids), the material was pre-digested with lipases (mimicking its natural course of action upon ingestion). […] Intralipid was incubated with 4 mg/ml lipase (sigma) in PBS plus 10 mM CaCl2 for a minimum of 5 h at 37° C.
Vagal calcium imaging. Each mouse was anaesthetized with ketamine (100 mg/kg) and xylazine (10 mg/kg). […] For glutamate receptor blocker experiments, a mixture of metabotropic glutamate receptor antagonist AP3 (2 mg/kg) and ionotropic glutamate receptor antagonist kynurenic acid (300 μg/kg) was used. CCKAR and glutamate receptor blockers were delivered both into the intestines and abdominal cavity; after a 5 min incubation period, the imaging session was started.
Calcium imaging data collection and analysis. […] Data was acquired at 5 Hz. A single field of view was chosen for recording and analysis from each ganglion. Calcium imaging data collected at 5 Hz was down-sampled by a factor of 2, and the images were stabilized using the NORMCorre algorithm. Motion-corrected movies were then manually segmented in ImageJ using the Cell Magic Wand plugin. Neuropil fluorescence was subtracted from each region of interest with the FISSA toolbox, and neural activity was denoised using the OASIS deconvolution algorithm. […] For experiments using blockers, two repeat trials per stimuli were used to accommodate the expanded time scale of the session (that is, before and after), and a neuron was considered a responder if it responded in both trials. The two-trial average area under curve for each stimulus was used to quantify the before and after responses (FIG. 12D, FIG. 12E). Imaging data is presented as heat maps of z-score-normalized responses.

[3] = tested on: cNST; assay: Fos stimulation and histology, cNST; format: in vivo, mice; settings: 90 min exposure; 20% Intralipid, 10% linoleic acid or 10% oleic acid vs xanthan gum / mineral oil controls
Description: Separate cohorts of animals were exposed to 3 different lipid stimuli (Intralipid, linoleic acid, or oleic acid) and to fat-free textural controls (xanthan gum or mineral oil). […] The cNST is a nexus of interoceptive signals conveying information from the body to the brain via the gut-brain axis. If the fat-activated brain cNST neurons are receiving signals originating in the gut, then direct delivery of fat stimuli into the gut should also induce activation of the cNST. An intragastric catheter was implanted in the stomach and infused either a fat solution or a vehicle control. Intragastric infusion of fat, but not of a vehicle, is sufficient to activate the cNST as robustly as oral ingestion (FIG. 1E, FIG. 1F, FIG. 8J, FIG. 8K, FIG. 8L).
Fos stimulation and histology. Stimuli consisted of 20% Intralipid (sc215182, Santa Cruz Biotechnology), 10% linoleic acid, 10% oleic acid, 0.3% xanthan gum or 10% mineral oil. Stimuli were emulsified by dilution into milliQ water containing 0.1% xanthan gum and 0.05% Tween 80, and vortexed for a minimum of 10 min. […] Quantification of Fos labelling was carried out by recording the number of positive neurons in an equivalent 200×200 um area of the cNST (bregma—7.5 mm) and area postrema. […]

[4] = tested on: cNST neurons; assay: Fibre photometry of cNST activity in response to intestinal delivery of stimuli; format: in vivo, mice; settings: Penk-Cre animals
Method: Fibre photometry. Vglut2-cre; Ai96 mice were placed in a stereotaxic frame and implanted with a 400 μm core, 0.48 NA optical fibre (Doric Lenses) 50-100 μm over the left cNST. […] To quantify the effects of vagotomy, the ratio of stimulus-related peak amplitude of the normalized trace was calculated (within 120 s of stimulus onset) prior vagotomy versus after vagotomy. […] Stimulus delivery was performed via a series of peristaltic pumps (BioChem Fluidics) operated via custom Matlab software and Arduino microcontroller. Stimuli and washes were delivered through separate lines that converged on a common perfusion manifold (Warner Instruments) connected to the duodenal catheter. Trials consisted of a 60-s baseline (PBS 200 μl/min), a 30 s stimulus (200 μl/min), and a 3-min washout period (150 s at 600 μl/min, and 30 s at 150 μl/min). Stimuli were each presented three times in an interleaved fashion.

[5] = tested on: vagal neurons; assay: CCK application in vagal calcium imaging; format: in vivo, mice; settings: 1 μg/ml CCK, 60 s
Description: Calcium imaging data collection and analysis. […] Data was acquired at 5 Hz.

Compound: CC1=CC(=O)[N-]S(=O)(=O)O1.[K+] [AceK, acesulfame K]
- immediate attraction versus water [1]: strong innate attraction

Compound: CC/C=C\C/C=C\C/C=C\CCCCCCCC(=O)O [alpha-linolenic acid]
- responding vagal neurons of imaged neurons [2]: 49/322

Compound: CCCCC/C=C\C/C=C\CCCCCCCC(=O)O [linoleic acid]
- Fos labelling in cNST upon ingestion [3]: strong Fos labelling; also recorded: strong bilateral activation
- neurons that responded only to fat (fat-only responders) ([2]; 10% linoleic acid and 500 mM glucose, 10 s, 1813 neurons imaged, 22 vagal ganglia): 153
- TRPA1-expressing vagal neurons responding to fat ([2]; Trpa1-Cre, Ai162, 163 imaged neurons from 5 ganglia, 10% linoleic acid): ~24%
- subset of vagal neurons with evoked responses, % of GCaMP-expressing Vglut2 neurons ([2]; intestinal infusion, Vglut2-Cre animals): 17%
- vagal neuron responses to intestinal delivery ([2]; vs vehicle control (0.1% xanthan gum plus 0.05% Tween 80)): strong responses; also recorded: robust responses
- cNST neural responses to intestinal delivery ([4]; 10% linoleic acid or 500 mM glucose, n=4 mice): robust, time-locked responses

Compound: Cholecystokinin [CCK]
- activation of fat-only vagal neurons [5]: not the fat-only vagal neurons
- activation of sugar/nutrient responding vagal neurons [5]: all sugar/nutrient responders were activated; also recorded: also responded to CCK
- activation of sugar/nutrient responding vagal neurons ([5]; listed as CCK peptide): strongly activated

Compound: CCCCCC(=O)O [hexanoic acid]
- responding vagal neurons of imaged neurons [2]: 52/495

Compound: CC/C=C\C/C=C\C/C=C\C/C=C\C/C=C\C/C=C\CCC(=O)O [docosahexaenoic acid]
- responding vagal neurons of imaged neurons [2]: 51/348

Compound: CCCCCCCC/C=C\CCCCCCCC(=O)O [oleic acid]
- Fos labelling in cNST upon ingestion [3]: strong Fos labelling; also recorded: strong bilateral activation
- responding vagal neurons of imaged neurons [2]: 39/418

Compound: CN1C(=O)[C@@H](NC(=O)c2cc3ccccc3[nH]2)N=C(c2ccccc2)c2ccccc21 [devazepide, Devazepide]
- cNST responses to intestinal fat stimulation after removing CCK-dependent signaling ([4]; photometric recordings, n=5): ~50%
- cNST sugar-evoked responses after inhibiting signaling via the CCK dependent pathway ([4]; photometric recordings, n=5): completely abolished
